According to patent US4468511A, “C-20- And C-23-Modified macrolide derivatives” (Eli Lilly and Company, priority 1983, dated 1984):
Converted amounts (≈) assume the structure as drawn. Where two headings read alike, the source gives them in different places.

Tests used:
Escherichia coli EC14 = experiment: MIC, standard agar-dilution assay; type: cell-based
Method: (§1) Certain of the derivatives are active against some gram-negative bacteria, such as Pasteurella species. The MIC's in Table II were determined by standard agar-dilution assays. The MIC's in Table III were obtained using a conventional broth-dilution microtiter test.

Escherichia coli TEM = experiment: MIC, standard agar-dilution assay; type: cell-based
Summary of the method: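 Minimum inhibitory concentrations against Escherichia coli were measured with a standard agar-dilution method. The result for each derivative is the lowest concentration that inhibits bacterial growth, given in ug/mL.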

[1] = test system: Klebsiella pneumoniae KAE; experiment: MIC, standard agar-dilution assay; type: cell-based
Summary of the method: (§2)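 MICs for the two Pasteurella strains and the Mycoplasma strain were read from a broth-dilution microtiter test. The Klebsiella strain was tested on agar instead.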

[2] = test system: Klebsiella pneumoniae X26; experiment: MIC, standard agar-dilution assay; type: cell-based
Summary of the method: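 The Klebsiella MIC was obtained by agar-dilution assay. Other organisms (Pasteurella hemolytica, Pasteurella multocida, Mycoplasma gallisepticum) were tested by conventional broth microdilution.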

[3] = test system: Staphylococcus aureus V41; experiment: MIC, standard agar-dilution assay; type: cell-based; conditions: Staphylococcus aureus, V41
Method: as §1

[4] = test system: Staphylococcus aureus X1.1; experiment: MIC, standard agar-dilution assay; type: cell-based; conditions: Staphylococcus aureus, X1.1
Summary of the method: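 Minimum inhibitory concentration against Staphylococcus aureus strain X1.1 was measured with a standard agar-dilution method. The result is reported as the MIC in ug/mL, i.e. the lowest compound concentration in agar that prevents visible growth of this organism.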

[5] = test system: Streptococcus Group D X66; experiment: MIC, standard agar-dilution assay; type: cell-based
Method: as §1

[6] = test system: Streptococcus pneumoniae Park I; experiment: MIC, standard agar-dilution assay; type: cell-based; conditions: Streptococcus pneumoniae
Method: as §1

[7] = test system: Streptococcus pyogenes 9960; experiment: MIC, standard agar-dilution assay; type: cell-based
Method: as §1

[8] = test system: Streptococcus pyogenes C203; experiment: MIC, standard agar-dilution assay; type: cell-based; conditions: Streptococcus pyogenes, C203
Method: as §1

[9] = test system: Haemophilus influenzae 76; experiment: MIC, standard agar-dilution assay; type: cell-based; conditions: Haemophilus influenzae, 76
Method: (§3) The MIC's in Table II were determined by standard agar-dilution assays. The MIC's in Table III were obtained using a conventional broth-dilution microtiter test.

[10] = test system: Haemophilus influenzae C.L.; experiment: MIC, standard agar-dilution assay; type: cell-based; conditions: Haemophilus influenzae
Method: as §3

[11] = test system: Staphylococcus aureus X400; experiment: MIC, standard agar-dilution assay; type: cell-based; conditions: Staphylococcus aureus, X400
Method: as §3

[12] = test system: Staphylococcus epidermidis EPI2; experiment: MIC, standard agar-dilution assay; type: cell-based
Method: as §3

[13] = test system: Staphylococcus aureus S13E; experiment: microbe, parasite or virus in culture; type: cell-based
Method: as §3

[14] = test system: Staphylococcus epidermidis EPI1; experiment: microbe, parasite or virus in culture; type: cell-based; conditions: Staphylococcus epidermidis, EPI1
Method: as §3

[15] = test system: Mycoplasma gallisepticum 34159; experiment: MIC, conventional broth-dilution microtiter test; type: cell-based; conditions: Mycoplasmoides gallisepticum
Summary of the method: as §2

[16] = test system: Mycoplasma gallisepticum 41313; experiment: MIC, conventional broth-dilution microtiter test; type: cell-based; conditions: Mycoplasmoides gallisepticum
Summary of the method: as §2

Mycoplasma gallisepticum = experiment: MIC, conventional broth-dilution microtiter test; type: cell-based; conditions: Mycoplasmoides gallisepticum
Summary of the method: as §2

Mycoplasma hyorhinis = experiment: MIC, conventional broth-dilution microtiter test; type: cell-based
Summary of the method: as §2

Mycoplasma synoviae = experiment: MIC, conventional broth-dilution microtiter test; type: cell-based; conditions: Mycoplasmopsis synoviae
Summary of the method: as §2

[17] = test system: Pasteurella hemolytica 22C; experiment: MIC, conventional broth-dilution microtiter test; type: cell-based
Summary of the method: as §2

[18] = test system: Pasteurella hemolytica 23C; experiment: MIC, conventional broth-dilution microtiter test; type: cell-based
Summary of the method: as §2

[19] = test system: Pasteurella hemolytica 41D; experiment: MIC, conventional broth-dilution microtiter test; type: cell-based
Summary of the method: as §2

[20] = test system: Pasteurella multocida 17E; experiment: MIC, conventional broth-dilution microtiter test; type: cell-based
Summary of the method: as §2

[21] = test system: Pasteurella multocida 22A; experiment: MIC, conventional broth-dilution microtiter test; type: cell-based
Summary of the method: as §2

[22] = test system: Pasteurella multocida 40G; experiment: MIC, conventional broth-dilution microtiter test; type: cell-based
Summary of the method: as §2

[23] = test system: Pasteurella multocida 60A; experiment: MIC, conventional broth-dilution microtiter test; type: cell-based
Summary of the method: as §2

[24] = test system: Pasteurella multocida 68C; experiment: MIC, conventional broth-dilution microtiter test; type: cell-based
Summary of the method: as §2

Staphylococcus aureus = experiment: MIC, conventional broth-dilution microtiter test; type: cell-based
Method: as §1

Streptococcus sp. 80 = experiment: MIC, conventional broth-dilution microtiter test; type: cell-based; conditions: Streptococcus, SP.80
Method: as §1

[25] = test system: Streptococcus pyogenes C203; experiment: Protection of mice experimentally infected with S. pyogenes C203; type: in vivo
Method: Some of the derivatives of this invention have shown in vivo antimicrobial activity against experimentally-induced infections in laboratory animals. When two doses of test compound were administered to mice experimentally infected with S. pyogenes C203, the activity observed was measured as an ED50 value [effective dose in mg/kg to protect 50% of the test animals: see Warren Wick, et al., J. Bacteriol. 81, 233-235 (1961)].

Pasteurella multocida = experiment: Pasteurella infection in one-day old chicks; type: in vivo; conditions: subcutaneous, 30 mg/kg × 2, 1 and 4 hours post-challenge
Method: Certain of the formula 1 compounds of this invention have also shown in vivo activity against infections induced by gram-negative bacteria. Table V summarizes the results of tests in which illustrative compounds were evaluated against a Pasteurella infection in one-day old chicks. The compounds were administered parenterally after challenge of the chicks with Pasteurella multocida (0.1 ml of a 10^-4 dilution of a twenty-hour tryptose broth culture of an avian P. multocida given subcutaneously). In these tests, unless indicated otherwise, all non-medicated infected chicks died within 24 hours of Pasteurella challenge. In the tests summarized in Table V, the compounds were administered by subcutaneous injection at a dosage of 30 mg/kg, 1 and 4 hours post-challenge of the chicks with P. multocida.

## CCC1CC(C)C(=O)C=CC(C)=CC(COc2cccnc2)C(CC)OC(=O)CC(O)C(C)C1OC1OC(C)C(O)C(N(C)C)C1O (centres unmarked) [Compound 46, 23-O-(3-Pyridyl)-20-deoxy-20-dihydro-OMT]
Escherichia coli EC14; agar-dilution, Escherichia coli EC14, read-out: MIC
  MIC: > 128 µg/mL
Escherichia coli TEM; agar-dilution, Escherichia coli TEM, read-out: MIC
  MIC: 128 µg/mL (≈ 194 µM)
[1]; agar-dilution, Klebsiella pneumoniae KAE, read-out: MIC
  MIC: > 128 µg/mL
[2]; agar-dilution, Klebsiella pneumoniae X26, read-out: MIC
  MIC: 4 µg/mL (≈ 6.05 µM)
[3]
  MIC: 0.5 µg/mL (≈ 0.757 µM)
[4]
  MIC: 1 µg/mL (≈ 1.51 µM)
[5]
  MIC: 2 µg/mL (≈ 3.03 µM)
[6]
  MIC: 0.5 µg/mL (≈ 0.757 µM)
[7]; agar-dilution, Streptococcus 9960, read-out: MIC
  MIC: 4 µg/mL (≈ 6.05 µM)
[8]
  MIC: 2 µg/mL (≈ 3.03 µM)
[9]
  MIC: 16 µg/mL (≈ 24.2 µM)
[10]
  MIC: 16 µg/mL (≈ 24.2 µM)
[11]
  MIC: 2 µg/mL (≈ 3.03 µM)
[12]; agar-dilution, Staphylococcus epidermidis EPI2, read-out: MIC
  MIC: 0.25 µg/mL (≈ 0.378 µM)
[13]
  MIC: 1 µg/mL (≈ 1.51 µM)
[14]
  MIC: 1 µg/mL (≈ 1.51 µM)
[15]; broth-dilution microtiter, Mycoplasma gallisepticum 34159, Resistant strain, read-out: MIC
  MIC: 50 µg/mL (≈ 75.7 µM)
[16]; broth-dilution microtiter, Mycoplasma gallisepticum 41313, Resistant strain, read-out: MIC
  MIC: 50 µg/mL (≈ 75.7 µM)
Mycoplasma gallisepticum
  MIC: 1.56 µg/mL (≈ 2.36 µM)
Mycoplasma hyorhinis; broth-dilution microtiter, Mycoplasma hyorhinis, read-out: MIC
  MIC: 25 µg/mL (≈ 37.8 µM)
Mycoplasma synoviae; broth-dilution microtiter, Mycoplasma synoviae, read-out: MIC
  MIC: 6.25 µg/mL (≈ 9.46 µM)
[17]; broth-dilution microtiter, Pasteurella hemolytica 22C, read-out: MIC
  MIC: 50 µg/mL (≈ 75.7 µM)
[18]; broth-dilution microtiter, Pasteurella hemolytica 23C, read-out: MIC
  MIC: 50 µg/mL (≈ 75.7 µM)
[19]; broth-dilution microtiter, Pasteurella hemolytica 41D, read-out: MIC
  MIC: 25 µg/mL (≈ 37.8 µM)
[20]; broth-dilution microtiter, Pasteurella multocida 17E, Bovine isolate, read-out: MIC
  MIC: 12.5 µg/mL (≈ 18.9 µM)
[21]; broth-dilution microtiter, Pasteurella multocida 22A, read-out: MIC
  MIC: 12.5 µg/mL (≈ 18.9 µM)
[22]; broth-dilution microtiter, Pasteurella multocida 40G, read-out: MIC
  MIC: 12.5 µg/mL (≈ 18.9 µM)
[23]; broth-dilution microtiter, Pasteurella multocida 60A, Avian isolate, read-out: MIC
  MIC: 12.5 µg/mL (≈ 18.9 µM)
[24]; broth-dilution microtiter, Pasteurella multocida 68C, read-out: MIC
  MIC: 6.25 µg/mL (≈ 9.46 µM)
Staphylococcus aureus
  MIC: 1.56 µg/mL (≈ 2.36 µM)
Streptococcus sp. 80
  MIC: 3.12 µg/mL (≈ 4.72 µM)
[25]; C203, po, read-out: ED50 Oral
  ED50: > 100 mg/kg
[25]; C203, sc, mice, subcutaneous, mg/kg × 2, doses given 1 and 4 hours postinfection, read-out: ED50 Subcutaneous
  ED50: > 10 mg/kg
Pasteurella multocida
  Number of Deaths/Number Treated: 10/10

## CCC1OC(=O)CC(O)C(C)C(OC2OC(C)C(O)C(N(C)C)C2O)C(CCOC(=O)Cc2ccccc2)CC(C)C(=O)C=CC(C)=CC1CO (centres unmarked) [Compound 1, 20-O-Phenylacetyl-20-dihydro-OMT]
Escherichia coli EC14; Escherichia coli, EC14
  MIC: 64 µg/mL (≈ 89.1 µM)
Escherichia coli TEM; Escherichia coli
  MIC: 16 µg/mL (≈ 22.3 µM)
[1]; Klebsiella pneumoniae
  MIC: > 128 µg/mL
[2]; Klebsiella pneumoniae, X26
  MIC: 4 µg/mL (≈ 5.57 µM)
[3]
  MIC: 1 µg/mL (≈ 1.39 µM)
[4]
  MIC: 1 µg/mL (≈ 1.39 µM)
[5]
  MIC: 2 µg/mL (≈ 2.79 µM)
[6]
  MIC: 0.5 µg/mL (≈ 0.696 µM)
[7]; 9960
  MIC: 2 µg/mL (≈ 2.79 µM)
[8]
  MIC: 1 µg/mL (≈ 1.39 µM)
[9]
  MIC: 16 µg/mL (≈ 22.3 µM)
[10]
  MIC: 16 µg/mL (≈ 22.3 µM)
[11]
  MIC: 2 µg/mL (≈ 2.79 µM)
[12]; Staphylococcus epidermidis, EPI2
  MIC: 1 µg/mL (≈ 1.39 µM)
[13]
  MIC: 1 µg/mL (≈ 1.39 µM)
[14]
  MIC: 0.5 µg/mL (≈ 0.696 µM)
[15]; 34159
  MIC: 6.25 µg/mL (≈ 8.71 µM)
[16]; 41313
  MIC: 50 µg/mL (≈ 69.6 µM)
Mycoplasma gallisepticum
  MIC: 3.12 µg/mL (≈ 4.35 µM)
Mycoplasma hyorhinis; Mycoplasma
  MIC: > 50 µg/mL
Mycoplasma synoviae
  MIC: 50 µg/mL (≈ 69.6 µM)
[17]; Pasteurella, 22C
  MIC: 25 µg/mL (≈ 34.8 µM)
[18]; Pasteurella, 23C
  MIC: 12.5 µg/mL (≈ 17.4 µM)
[19]; Pasteurella, 41D
  MIC: 12.5 µg/mL (≈ 17.4 µM)
[20]; Pasteurella multocida, 17E
  MIC: 12.5 µg/mL (≈ 17.4 µM)
[21]; Pasteurella multocida, 22A
  MIC: 25 µg/mL (≈ 34.8 µM)
[22]; Pasteurella multocida, 40G
  MIC: 25 µg/mL (≈ 34.8 µM)
[23]; Pasteurella multocida, 60A
  MIC: 25 µg/mL (≈ 34.8 µM)
[24]; Pasteurella multocida, 68C
  MIC: 6.25 µg/mL (≈ 8.71 µM)
Staphylococcus aureus
  MIC: 3.12 µg/mL (≈ 4.35 µM)
Streptococcus sp. 80
  MIC: 3.12 µg/mL (≈ 4.35 µM)
[25]; C203, po, read-out: ED50 Oral
  ED50: > 100 mg/kg
[25]; C203, sc, read-out: ED50 Subcutaneous
  ED50: > 30 mg/kg
Pasteurella multocida
  Number of Deaths/Number Treated: 9/10
